{
  "source": "patent EP3750892A1",
  "about": "“NOVEL 5-CYCLOPROPYL-FURO[3,4-C]PYRIDINE-3,4(1H,5H)-DIONE 1,1' SUBSTITUTED DERIVATIVES AND THEIR USES” (Yerevan State University, priority 2019, dated 2020)",
  "type_in_all_cases": "cell-based",
  "key": {"[1]": {"system": "de novo pyrimidine biosynthesis", "assay": "Purine (G/A) and pyrimidine (C/U) quantification by HPLC-coupled spectrophotometry in HEK-293 cells", "conditions": "24 h, 5, 10 or 20 µg/mL", "method": "Cells were cultured at 37°C and 5% CO2 in Dulbecco's modified Eagle's Medium (DMEM; Sigma-Aldrich) containing 10% fetal calf serum (FCS), penicillin and streptomycin. Nucleoside/nucleotide quantification in HEK-293 cells was performed as previously described in by Lucas-Hourani et al. (2017). Briefly, cells were plated in 6-well plates at 1x10^6 cells per well and after 24 h, several concentrations of compounds of the invention (diluted in DMSO) or DMSO alone was added.\nOne day later, cells were washed with PBS and cellular pellets were deproteinized by adding an equal volume of 6% perchloric acid. After 10 min of incubation on ice and clearing of the extracts by centrifugation (13,000 rpm for 10 min at 4°C), supernatants were supplemented with bidistilled water (V/V) and neutralized by the addition of 2 M Na2CO3. Extracts were analyzed by HPLC onto a C18 Supelco 5-µm (250 by 4.6 mm) column (Sigma) at 45°C using a mobile phase delivered at a flow rate of 1 mL/min. Buffer A contained 10 mM tetrabutylammonium hydroxide, 10 mM KH2PO4, and 0.25% MeOH and was adjusted to pH 6.9 with 1 M HCl. Buffer B contained 5.6 mM tetrabutylammonium hydroxide, 50 mM KH2PO4, and 30% MeOH and was neutralized to pH 7.0 with 1 M NaOH. […] Products were monitored spectrophotometrically at 254 nm with a diode array detector (PDA) and quantified by integration of the peak absorbance area. […]"}, "[2]": {"system": "cellular response to IFN-γ", "assay": "ISRE-Luc reporter assay: amplification of cellular response to type II IFN", "conditions": "HEK-293 ISRE-Luc, compound 80 µM, recombinant IFN-γ", "method": "Reporter system, cell culture and luciferase assay are performed as exposed above. HEK-293 cells with the ISRE-Luc reporter gene were treated with DMSO or compounds of the invention in the absence or presence of recombinant IFN-γ (Figure 4A; Roussel Uclaf or Milteny Biotech, 150 IU/mL).\n(§1) The same experiment was performed but using different dilutions ranging from 1/8 to 1/64 of conditioned supernatants from activated PBMCs, instead of recombinant IFN-γ. Human peripheral blood mononuclear cells (PBMC) from one healthy donor were isolated by density centrifugation with Lymphoprep medium (StemCell Technologies) from leucocytes concentrates obtained when plateletpheresis was performed (Etablissement Français du Sang; Paris; France). To activate PBMCs, cells were treated for 24 h with the TLR7/8 ligand R848 at 5 µg/mL (Sigma Aldrich) and supernatants were harvested. R848 is known to induce expression of several cytokines, within which IFN-γ which is found at high levels in PBMC supernatants in comparison with type I IFNs (Table 4). Table 4. Cytokine expression levels in culture supernatants of human PBMC activated with R848."}, "[3]": {"system": "HEK-293 cells", "assay": "Cell viability / proliferation assay (CellTiter-Glo)", "conditions": "24, 48 and 72 h of culture", "method": "Cells were treated with DMSO or compounds of the invention at different concentrations, and the number of viable cells was determined using the CellTiter-Glo reagent after 24, 48 and 72 h of culture. Cellular viability was determined by quantification of ATP in culture wells using the CellTiter-Glo assay (Promega).\nTwo independent experiments were performed. Results were analyzed using one-way analysis of variance (ANOVA) with Bonferroni's post hoc test."}, "[4]": {"system": "cellular response to IFN-α", "assay": "ISRE-Luc reporter assay: amplification of cellular response to IFN-α", "conditions": "for amplification of cellular response to IFN-α: HEK-293 ISRE-Luc (STING 37 cell line); for amplification of cellular response to IFN-α / pEC50 / EC50: IFN-α 150 IU/mL; for pEC50 / EC50: ISRE-Luc reporter cells, dose-response 0.8 to 150 µM, luciferase after 24 h, pEC50<3.8 = inactive", "method": "Cells were cultured at 37°C and 5% CO2 in Dulbecco's modified Eagle's Medium (DMEM; Sigma-Aldrich) containing 10% fetal calf serum (FCS), penicillin and streptomycin. Experiments were performed on HEK-293 cells stably transfected with the ISRE-Luciferase reporter gene (ISRE-Luc), with or without NanoLuc as an additional reporter gene (Lucas-Hourani et al., 2013; Hayek et al., 2019).\nReporter cells were incubated with increasing concentrations of candidates DHODH inhibitors diluted in DMSO in the presence or not of recombinant IFN-α (150 IU/mL). Recombinant IFN-α was from Sigma-Aldrich or PBL Assay Science. Luciferase activity was quantified 24 h later.\nTo confirm that modulation of IFN-α is related to DHDOH inhibition by compounds of the invention, the same experiments were performed by adding either uridine (pyrimidine derivated nucleoside), dihydroorotate (DHO, the substrate od DHODH in pyrimidine de novo biosynthesis pathway) or orotate (the product of ubiquinone-mediated oxidation of DHO catalysed by DHODH) together with compound of the invention. uridine, orotate, and DHO are all from Sigma Aldrich.\nFirefly luciferase expression in culture wells was measured using the Bright-Glo (Promega) or Britelite plus reagents (PerkinElmer), according to the manufacturer's recommendations. For each concentration, three independent experiments were performed.\nCompounds were tested for their ability to boost cellular response to IFN-α using ISRE-Luc reporter cells."}, "[5]": {"system": "human PBMC", "assay": "Cytokine expression levels in culture supernatants of PBMC activated with R848", "conditions": "PBMC + R848 5 µg/mL, 24 h, supernatant", "method": "as §1"}},
  "data": [
    {"compound": "5'-cyclopropyl-3'H-spiro[cyclohexane-1,1'-furo[3,4-c]pyridine]-3',4(5'H)-dione [Compound 2]", "values": [
      {"measurement": "Pyrimidine (U and C) levels", "setting": "[1]", "result": "drop of pyrimidine cellular concentration"},
      {"measurement": "Amplification of response to IFN type II", "setting": "[2]", "result": "Amplification of response to IFN type II"},
      {"measurement": "proliferation of HEK-293 cells (number of viable cells)", "setting": "[3]", "result": "prevent cell proliferation"},
      {"measurement": "amplification of cellular response to IFN-α", "setting": "[4]", "result": "amplified"},
      {"measurement": "pEC50", "setting": "[4]", "result": 4.4},
      {"measurement": "reversal of amplification of response to IFN-α by uridine, orotate or DHO", "setting": "[4]; compound 80 µM, uridine 125 µM, DHO 3 mM, orotate 3 mM", "result": "reversed by orotate but not DHO"}
    ]},
    {"compound": "5'-cyclopropyl-3'H-spiro[cyclopentane-1,1'-furo[3,4-c]pyridine]-3',4(5'H)-dione [Compound 1]", "values": [
      {"measurement": "pEC50", "setting": "[4]", "result": 4.3}
    ]},
    {"compound": "CC1(c2ccccc2)OC(=O)c2c1ccn(C1CC1)c2=O", "note": "(stereo not shown) [Compound 3, 5-cyclopropyl-1-methyl-1-phenylfuro[3,4-c]pyridine-3,4(1H,5H)-dione]", "values": [
      {"measurement": "amplification of cellular response to IFN-α", "setting": "[4]", "result": "amplified"},
      {"measurement": "EC50", "setting": "[4]", "result": 25.1, "unit": "µM"}
    ]},
    {"compound": "CC1(CCc2ccccc2)OC(=O)c2c1ccn(C1CC1)c2=O", "note": "(stereo not shown) [Compound 4, 5-cyclopropyl-1-methyl-1-phenethylfuro[3,4-c]pyridine-3,4(1H,5H)-dione]", "values": [
      {"measurement": "EC50", "setting": "[4]", "result": 6.31, "unit": "µM"}
    ]},
    {"compound": "CCOCc1nc2c(N)nc3ccccc3c2n1CC(C)(C)O", "note": "[Compound R848]", "values": [
      {"measurement": "GM-CSF", "setting": "[5]", "result": 0.043, "unit": "ng/mL"},
      {"measurement": "IFN-α2", "setting": "[5]", "result": 0.097, "unit": "ng/mL"},
      {"measurement": "IFN-β", "setting": "[5]", "result": 0.015, "unit": "ng/mL"},
      {"measurement": "IFN-γ", "setting": "[5]", "result": 4.2, "unit": "ng/mL"},
      {"measurement": "IFN-λ1", "setting": "[5]", "result": 0.016, "unit": "ng/mL"},
      {"measurement": "IL-1β", "setting": "[5]", "result": 12, "unit": "ng/mL"},
      {"measurement": "IL-6", "setting": "[5]", "result": 65, "unit": "ng/mL"},
      {"measurement": "IL-8", "setting": "[5]", "result": 214, "unit": "ng/mL"},
      {"measurement": "IL-10", "setting": "[5]", "result": 0.283, "unit": "ng/mL"},
      {"measurement": "IL-12p70", "setting": "[5]", "result": 0.009, "unit": "ng/mL"},
      {"measurement": "IP10", "setting": "[5]", "result": 0.028, "unit": "ng/mL"},
      {"measurement": "TNF-α", "setting": "[5]", "result": 11, "unit": "ng/mL"}
    ]}
  ]
}
